We go through 27 compounds from patent publication US8865734B2 (priority 2010, dated 2014).

Data set [1] concerns in vitro grown Mycobacteria (M. tuberculosis). The experiment in a line: QUM: Quantification of in vitro grown Mycobacteria (in vitro growth fluorescence assay). Format: cell-based. The following applies: Mycobacterium tuberculosis; MIC, 80% bacterial growth inhibition; in vitro growth; read-out: QUM. The method in brief:
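Mycobacterium tuberculosis grown in vitro was quantified by fluorescence across compound dose responses. MIC is defined as the minimum concentration producing 80% growth inhibition.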

Data set [2] concerns M. tuberculosis inside the host macrophage. The experiment in a line: QIM: Quantification of Intracellular Mycobacteria (intracellular growth assay, phenotypic cell-based). The following applies: Mycobacterium tuberculosis; MIC, 80% bacterial growth inhibition; intracellular growth; read-out: QIM. The method in brief: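 Phenotypic high-content assay measuring M. tuberculosis multiplication inside host macrophages, run as dose response. MIC is the minimum compound concentration giving 80% bacterial growth inhibition.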

Converted amounts (≈) assume the structure as drawn. Where only a bound is given, the exact number is not on record here.

Broadly, the melting point is the temperature, or range, at which the solid turns liquid. `CCc1nc2cc(Cl)ccn2c1C(=O)NCc1ccc(N2CCN(c3ccc(OC(F)(F)F)cc3)CC2)cc1` [Compound 179, 7-Chloro-2-ethyl-N-(4-(4-(4-(trifluoromethoxy)phenyl)piperazin-1-yl)benzyl)imidazo[1,2-a]pyridine-3-carboxamide] displayed a melting point of 216.3 to 217 °C. In data set [1], the MIC is below 1 µM. In data set [2], the MIC is below 1 µM.

`CCc1nc2ccccn2c1C(=O)NCc1ccc(N2CCN(c3ccc(OC(F)(F)F)cc3)CC2)cc1` [Compound 181, 2-Ethyl-N-(4-(4-(4-(trifluoromethoxy)phenyl)piperazin-1-yl)benzyl)imidazo[1,2-a]pyridine-3-carboxamide] registered a melting point of 178 to 179 °C. Also, the MIC in data set [1] was below 1 µM. The MIC in data set [2] is below 1 µM.

In the case of `CCc1nc2ccc(Cl)cn2c1C(=O)N(C)Cc1ccc(N2CCN(c3ccc(F)cc3)CC2)cc1` [Compound 182, 6-Chloro-2-ethyl-N-(4-(4-(4-fluorophenyl)piperazin-1-yl)benzyl)-N-methylimidazo[1,2-a]pyridine-3-carboxamide], the melting point lay within 148 to 149 °C. Moreover, the MIC in data set [1] was below 1 µM. Further, in data set [2], the MIC fell in the range of 1 to 20 µM (≈ 0.506 to 10.1 µg/mL).

`CCc1nc2cc(Cl)ccn2c1C(=O)NCc1ccc(Oc2ccc(OC(F)(F)F)cc2)cc1` [Compound 186, 7-Chloro-2-ethyl-N-(4-(4-(trifluoromethoxy)phenoxy)benzyl)imidazo[1,2-a]pyridine-3-carboxamide] had a melting point of 141 to 142 °C. Besides, the MIC in data set [1] was below 1 µM. Besides, in data set [2], the MIC is below 1 µM.

In turn, `CCc1nc2ccc(Cl)cn2c1C(=O)NCc1ccc(Oc2ccc(F)cc2)cc1` [Compound 187, 6-Chloro-2-ethyl-N-(4-(4-fluorophenoxy)benzyl)imidazo[1,2-a]pyridine-3-carboxamide] displayed a melting point of 168 to 169 °C. Besides, the MIC in data set [1] was below 1 µM. Besides, in data set [2], the MIC was below 1 µM.

`CCc1nc2ccc(Cl)cn2c1C(=O)NCc1ccc(Oc2ccc(Cl)cc2)cc1` [Compound 190, 6-Chloro-N-(4-(4-chlorophenoxy)benzyl)-2-ethylimidazo[1,2-a]pyridine-3-carboxamide]: the melting point was in the range of 159 to 160.7 °C. In data set [1], the MIC was below 1 µM. Moreover, the MIC in data set [2] is below 1 µM.

Regarding `CCc1nc2cc(Cl)ccn2c1C(=O)NCc1ccc(Oc2ccc(Cl)cc2)cc1` [Compound 191, 7-Chloro-N-(4-(4-chlorophenoxy)benzyl)-2-ethylimidazo[1,2-a]pyridine-3-carboxamide], the melting point was 167.1 to 167.9 °C. Besides, the MIC in data set [1] is below 1 µM. Moreover, in data set [2], the MIC is below 1 µM.

Compound `CCc1nc2cc(Cl)ccn2c1C(=O)NCc1ccc(Oc2ccc(F)cc2)nc1` [Compound 193, 7-Chloro-2-ethyl-N-((6-(4-fluorophenoxy)pyridin-3-yl)methyl)imidazo[1,2-a]pyridine-3-carboxamide] registered a melting point of 167 to 167.6 °C. For the same compound, the MIC in data set [1] was below 1 µM. The MIC in data set [2] is below 1 µM.

In turn, `CCc1nc2ccc(Cl)cn2c1C(=O)NCc1ccc(Oc2ccc(OC(F)(F)F)cc2)nc1` [Compound 194, 6-Chloro-2-ethyl-N-((6-(4-(trifluoromethoxy)phenoxy)pyridin-3-yl)methyl)imidazo[1,2-a]pyridine-3-carboxamide] gave a melting point of 154 to 155 °C. The MIC in data set [1] fell in the range of 1 to 20 µM (≈ 0.491 to 9.82 µg/mL). Moreover, in data set [2], the MIC is below 1 µM.

The compound `CCc1nc2ccc(Cl)cn2c1C(=O)OCc1ccc(Oc2ccccc2)cc1` [Compound 196, 4-Phenoxybenzyl 6-chloro-2-ethylimidazo[1,2-a]pyridine-3-carboxylate] gave a melting point of 123.3 to 123.8 °C. For the same compound, in data set [1], the MIC lay in the range of 1 to 20 µM (≈ 0.407 to 8.14 µg/mL). Moreover, the MIC in data set [2] was below 1 µM.

In the case of `CCc1nc2ccc(Cl)cn2c1C(=O)NCc1ccc(N2CC(C)OC(C)C2)cc1` (stereo not drawn) [Compound 209, 6-Chloro-N-(4-(2,6-dimethylmorpholino)benzyl)-2-ethylimidazo[1,2-a]pyridine-3-carboxamide], the melting point was in the range of 176 to 177 °C. In addition, the MIC in data set [1] is below 1 µM. The MIC in data set [2] was below 1 µM.

Consider `CCc1nc2cc(Cl)ccn2c1C(=O)NCc1ccc(N2CC(C)OC(C)C2)cc1` (stereo not drawn) [Compound 210, 7-Chloro-N-(4-(2,6-dimethylmorpholino)benzyl)-2-ethylimidazo[1,2-a]pyridine-3-carboxamide], for which the melting point fell in the range of 165 to 166 °C. The MIC in data set [1] lay in the range of 1 to 20 µM (≈ 0.427 to 8.54 µg/mL). Besides, the MIC in data set [2] is below 1 µM.

`CCc1nc2ccc(Cl)cn2c1C(=O)NCc1ccc(N2CCCC2)cc1` [Compound 211, 6-Chloro-2-ethyl-N-(4-(pyrrolidin-1-yl)benzyl)imidazo[1,2-a]pyridine-3-carboxamide] had a melting point of 222 to 223 °C. Besides, the MIC in data set [1] was below 1 µM. Moreover, the MIC in data set [2] is below 1 µM.

In the case of `CCc1nc2ccc(Cl)cn2c1C(=O)NCc1ccc(N2CC(C)CC(C)C2)cc1` (stereo not drawn) [Compound 216, 6-Chloro-N-(4-(3,5-dimethylpiperidin-1-yl)benzyl)-2-ethylimidazo[1,2-a]pyridine-3-carboxamide], the melting point was 157.2 to 158 °C. Besides, in data set [1], the MIC is below 1 µM. Further, the MIC in data set [2] is below 1 µM.

`CCc1nc2cc(Cl)ccn2c1C(=O)NCc1ccc(N2CC(C)CC(C)C2)cc1` (stereo not drawn) [Compound 217, 7-Chloro-N-(4-(3,5-dimethylpiperidin-1-yl)benzyl)-2-ethylimidazo[1,2-a]pyridine-3-carboxamide] registered a melting point of 181.5 to 182.8 °C. In addition, the MIC in data set [1] is below 1 µM. Also, the MIC in data set [2] is below 1 µM.

Compound `CCc1nc2cc(Cl)ccn2c1C(=O)NCc1ccc(N2CCC(O)CC2)cc1` [Compound 218, 7-Chloro-2-ethyl-N-(4-(4-hydroxypiperidin-1-yl)benzyl)imidazo[1,2-a]pyridine-3-carboxamide] displayed a melting point of 179.1 to 180 °C. In data set [1], the MIC was below 1 µM. Also, the MIC in data set [2] was above 20 µM.

Consider `CCc1nc2ccc(Cl)cn2c1C(=O)NCC1CCN(Cc2ccc(OC(F)(F)F)cc2)CC1` [Compound 226, 6-Chloro-2-ethyl-N-((1-(4-(trifluoromethoxy)benzyl)piperidin-4-yl)methyl)imidazo[1,2-a]pyridine-3-carboxamide], for which the melting point is 171 to 172 °C. Moreover, the MIC in data set [1] is below 1 µM. For the same compound, in data set [2], the MIC was below 1 µM.

For `CCc1nc2ccc(Cl)cn2c1C(=O)NCC1CCN(Cc2ccc(F)cc2)CC1` [Compound 227, 6-Chloro-2-ethyl-N-((1-(4-fluorobenzyl)piperidin-4-yl)methyl)imidazo[1,2-a]pyridine-3-carboxamide], the melting point lay in the range of 176 to 177 °C. Also, the MIC in data set [1] lay in the range of 1 to 20 µM (≈ 0.429 to 8.58 µg/mL). Also, the MIC in data set [2] was below 1 µM.

On to `CCc1nc2cc(Cl)ccn2c1C(=O)NCC1CCN(Cc2ccc(OC(F)(F)F)cc2)CC1` [Compound 228, 7-Chloro-2-ethyl-N-((1-(4-(trifluoromethoxy)benzyl)piperidin-4-yl)methyl)imidazo[1,2-a]pyridine-3-carboxamide], for which the melting point fell in the range of 145 to 146 °C. Further, in data set [1], the MIC was above 20 µM. The MIC in data set [2] is above 20 µM.

`CCc1nc2ccc(Cl)cn2c1C(=O)NC1CCN(Cc2ccc(OC(F)(F)F)cc2)CC1` [Compound 229, 6-Chloro-2-ethyl-N-(1-(4-(trifluoromethoxy)benzyl)piperidin-4-yl)imidazo[1,2-a]pyridine-3-carboxamide] registered a melting point of 157 to 158 °C. Also, in data set [1], the MIC was above 20 µM. Besides, the MIC in data set [2] is above 20 µM.

In the case of `CCc1nc2ccc(Cl)cn2c1COc1ccc(OC(F)(F)F)cc1` [Compound 239, 6-Chloro-2-ethyl-3-((4-(trifluoromethoxy)phenoxy)methyl)imidazo[1,2-a]pyridine], the melting point was in the range of 127 to 128 °C. The MIC in data set [1] was above 20 µM. Besides, in data set [2], the MIC is above 20 µM.

`CCc1nc2ccc(Cl)cn2c1CNc1ccc(N2CCN(c3ccc(F)cc3)CC2)cc1` [Compound 241, N-((6-Chloro-2-ethylimidazo[1,2-a]pyridin-3-yl)methyl)-4-(4-(4-fluorophenyl)piperazin-1-yl)aniline] returned a melting point of 191 to 192 °C. Besides, in data set [1], the MIC is above 20 µM. In data set [2], the MIC is above 20 µM.

With `CCc1nc2ccc(Cl)cn2c1CNc1ccc(Oc2ccc(F)cc2)cc1` [Compound 242, N-((6-Chloro-2-ethylimidazo[1,2-a]pyridin-3-yl)methyl)-4-(4-fluorophenoxy)aniline], the melting point lay within 148.6 to 148.8 °C. In addition, in data set [1], the MIC was above 20 µM. The MIC in data set [2] is above 20 µM.

The compound `CCc1nc2ccc(Cl)cn2c1-c1nc(Cc2ccc(OC(F)(F)F)cc2)no1` [Compound 243, 5-(6-Chloro-2-ethylimidazo[1,2-a]pyridin-3-yl)-3-(4-(trifluoromethoxy)benzyl)-1,2,4-oxadiazole] had a melting point of 146.4 to 146.9 °C. Besides, the MIC in data set [1] is above 20 µM. Moreover, the MIC in data set [2] is above 20 µM.

`CCc1nc2ccccn2c1C(=O)NCc1ccc(/N=C/c2ccc(OC(F)(F)F)cc2)cc1` [Compound 261] returned a melting point of 194 °C. Also, in data set [1], the MIC was above 20 µM. The MIC in data set [2] is above 20 µM.

In turn, `CCc1nc2cc(Cl)ccn2c1C(=O)NCc1ccc(NCc2ccc(OC(F)(F)F)cc2)cc1` [Compound 262] registered a melting point of 169.6 °C. The MIC in data set [1] was below 1 µM. Also, in data set [2], the MIC is below 1 µM.

With `CCc1nc2ccc(Cl)cn2c1C(=O)NCc1ccc(N2CCC3CCCCC3C2)cc1` (stereo not drawn) [Compound 267, 6-Chloro-2-ethyl-N-(4-(octahydroisoquinolin-2(1H)-yl)benzyl)imidazo[1,2-a]pyridine-3-carboxamide], the melting point came to 141.7 °C. Further, the MIC in data set [1] is below 1 µM. Also, in data set [2], the MIC was below 1 µM.
